Test system: MV-4-11 cells
Test: Gene expression microarray analysis (Affymetrix PrimeView) and GSEA
Type: cell-based, human
Parameters: RFU PODN (11730768_x_at) / Fold change /veh PODN (11730768_x_at) / RFU LINC00158 (11744669_a_at) / Fold change /veh LINC00158 (11744669_a_at) / RFU DUSP10 (11751237_a_at) / Fold change /veh DUSP10 (11751237_a_at) / RFU ID3 (11757404_x_at) / Fold change /veh ID3 (11757404_x_at) / RFU PLEKHG5 (11737974_s_at) / Fold change /veh PLEKHG5 (11737974_s_at) / RFU LRRC4B (11730491_at) / Fold change /veh LRRC4B (11730491_at) / RFU GIMAP4 (11747438_a_at) / Fold change /veh GIMAP4 (11747438_a_at) / RFU KRT8 (11758183_x_at) / Fold change /veh KRT8 (11758183_x_at) / RFU CNN1 (11734310_a_at) / Fold change /veh CNN1 (11734310_a_at) / RFU VPS37D (11726825_at) / Fold change /veh VPS37D (11726825_at) / RFU C10orf10 (11716522_x_at) / Fold change /veh C10orf10 (11716522_x_at) / RFU KIR2DL2 /// KIR2DL4 /// KIR2DL5A /// KIR2DL5B /// KIR2DS1 /// KIR2DS2 /// KIR2DS3 /// KIR2DS4 /// KIR3DL3 /// KIR3DL3 /// KIR3DS1 (11738374_at) / Fold change /veh KIR2DL2 /// KIR2DL4 /// KIR2DL5A /// KIR2DL5B /// KIR2DS1 /// KIR2DS2 /// KIR2DS3 /// KIR2DS4 /// KIR3DL3 /// KIR3DL3 /// KIR3DS1 (11738374_at) / RFU C1QL1 (11718748_at) / Fold change /veh C1QL1 (11718748_at) / RFU TMPRSS4 (11747572_a_at) / Fold change /veh TMPRSS4 (11747572_a_at) / RFU HAMP (11756126_x_at) / Fold change /veh HAMP (11756126_x_at) / RFU RNFT2 (11725882_a_at) / Fold change /veh RNFT2 (11725882_a_at) / RFU NR4A2 (11747474_a_at) / Fold change /veh NR4A2 (11747474_a_at) / RFU ABCC12 (11746883_a_at) / Fold change /veh ABCC12 (11746883_a_at) / RFU TMEM136 (11760407_x_at) / Fold change /veh TMEM136 (11760407_x_at) / RFU CLDN22 /// WWC2 (11732394_at) / Fold change /veh CLDN22 /// WWC2 (11732394_at) / RFU HLA-DPB1 (11760878_x_at) / Fold change /veh HLA-DPB1 (11760878_x_at) / RFU SPINT1 (11716480_a_at) / Fold change /veh SPINT1 (11716480_a_at) / RFU GAP43 (11754022_s_at) / Fold change /veh GAP43 (11754022_s_at) / RFU A4GNT (11735810_at) / Fold change /veh A4GNT (11735810_at) / RFU PRB3 (11715151_x_at) / Fold change /veh PRB3 (11715151_x_at) / RFU TUBB4B (11761932_at) / Fold change /veh TUBB4B (11761932_at) / RFU CAPN14 (11732068_a_at) / Fold change /veh CAPN14 (11732068_a_at) / RFU TMCC2 (11721928_a_at) / Fold change /veh TMCC2 (11721928_a_at) / RFU IRGQ (11745062_a_at) / Fold change /veh IRGQ (11745062_a_at) / RFU FAM174B (11720279_a_at) / Fold change /veh FAM174B (11720279_a_at) / RFU TMPRSS4 (11748680_a_at) / Fold change /veh TMPRSS4 (11748680_a_at) / RFU FAM212B (11763350_a_at) / Fold change /veh FAM212B (11763350_a_at) / RFU PLEKHG5 (11743358_a_at) / Fold change /veh PLEKHG5 (11743358_a_at) / RFU ZSCAN30 (11745921_a_at) / Fold change /veh ZSCAN30 (11745921_a_at) / RFU CMKLR1 (11741424_a_at) / Fold change /veh CMKLR1 (11741424_a_at) / RFU LOC101060620 /// MAPK8IP1 (11723275_at) / Fold change /veh LOC101060620 /// MAPK8IP1 (11723275_at) / RFU SPTSSB (11747773_x_at) / Fold change /veh SPTSSB (11747773_x_at) / RFU PRSS12 (11739890_at) / Fold change /veh PRSS12 (11739890_at) / RFU BIN1 (11741810_x_at) / Fold change /veh BIN1 (11741810_x_at) / RFU WNT11 (11732464_a_at) / Fold change /veh WNT11 (11732464_a_at) / RFU C10orf10 (11716521_a_at) / Fold change /veh C10orf10 (11716521_a_at) / RFU C5orf56 (11738089_at) / Fold change /veh C5orf56 (11738089_at) / RFU CYB561 (11721691_x_at) / Fold change /veh CYB561 (11721691_x_at) / RFU ANKRD19P (11752326_a_at) / Fold change /veh ANKRD19P (11752326_a_at) / RFU OR2T12 /// OR2T33 /// OR2T8 (11738714_s_at) / Fold change /veh OR2T12 /// OR2T33 /// OR2T8 (11738714_s_at) / RFU VCAN (11748164_a_at) / Fold change /veh VCAN (11748164_a_at) / RFU JSRP1 (11732532_at) / Fold change /veh JSRP1 (11732532_at) / RFU KRTAP10-11 (11738290_x_at) / Fold change /veh KRTAP10-11 (11738290_x_at) / RFU MYO3A (11730013_a_at) / Fold change /veh MYO3A (11730013_a_at) / RFU EBF3 (11725865_a_at) / Fold change /veh EBF3 (11725865_a_at) / RFU CAMK2N1 (11719241_x_at) / Fold change /veh CAMK2N1 (11719241_x_at) / RFU C5orf56 (11738088_a_at) / Fold change /veh C5orf56 (11738088_a_at) / RFU OLFML3 (11715873_a_at) / Fold change /veh OLFML3 (11715873_a_at) / RFU LOC100653217 /// NTM (11731650_a_at) / Fold change /veh LOC100653217 /// NTM (11731650_a_at) / RFU MAPK11 (11762145_a_at) / Fold change /veh MAPK11 (11762145_a_at) / RFU FIZ1 (11724087_x_at) / Fold change /veh FIZ1 (11724087_x_at) / RFU OASL (11726364_x_at) / Fold change /veh OASL (11726364_x_at) / RFU SOX15 (11748057_x_at) / Fold change /veh SOX15 (11748057_x_at) / RFU CD79A (11719716_a_at) / Fold change /veh CD79A (11719716_a_at) / RFU HIST1H1D (11736915_at) / Fold change /veh HIST1H1D (11736915_at) / RFU CASKIN2 (11723855_a_at) / Fold change /veh CASKIN2 (11723855_a_at) / RFU LOC730098 (11760151_x_at) / Fold change /veh LOC730098 (11760151_x_at) / RFU OR4N2 (11742367_at) / Fold change /veh OR4N2 (11742367_at) / RFU PRRT2 (11749266_a_at) / Fold change /veh PRRT2 (11749266_a_at) / RFU SNX32 (11753110_a_at) / Fold change /veh SNX32 (11753110_a_at) / RFU CDHR5 (11726645_a_at) / Fold change /veh CDHR5 (11726645_a_at) / RFU RCAN1 (11760418_a_at) / Fold change /veh RCAN1 (11760418_a_at) / RFU FAM167A (11723789_a_at) / Fold change /veh FAM167A (11723789_a_at) / RFU FAM26E (11764081_at) / Fold change /veh FAM26E (11764081_at) / RFU ISYNA1 (11749810_s_at) / Fold change /veh ISYNA1 (11749810_s_at) / RFU ACY1 (11761880_at) / Fold change /veh ACY1 (11761880_at) / RFU 11764098_at / Fold change /veh 11764098_at / RFU SAMD14 (11745864_x_at) / Fold change /veh SAMD14 (11745864_x_at) / RFU NPB (11741838_a_at) / Fold change /veh NPB (11741838_a_at) / RFU TMPRSS6 (11731388_a_at) / Fold change /veh TMPRSS6 (11731388_a_at) / RFU KRTAP10-2 (11738614_at) / Fold change /veh KRTAP10-2 (11738614_at) / RFU ARHGAP8 /// PRR5-ARHGAP8 (11727945_x_at) / Fold change /veh ARHGAP8 /// PRR5-ARHGAP8 (11727945_x_at) / RFU KRTAP5-7 /// NADSYN1 (11734609_at) / Fold change /veh KRTAP5-7 /// NADSYN1 (11734609_at) / RFU RASL12 (11751679_a_at) / Fold change /veh RASL12 (11751679_a_at) / RFU CDKN2B (11736163_a_at) / Fold change /veh CDKN2B (11736163_a_at) / RFU PRF1 (11729649_at) / Fold change /veh PRF1 (11729649_at) / RFU, ZNF638 /// ZNF638-IT1 / Fold change vs veh, ZNF638 /// ZNF638-IT1 / RFU, PANK3 / Fold change vs veh, PANK3 / RFU, SH3YL1 / Fold change vs veh, SH3YL1 / RFU, ZEB2 / Fold change vs veh, ZEB2 / RFU, NRIP1 / Fold change vs veh, NRIP1 / RFU, PTTG1IP / Fold change vs veh, PTTG1IP / RFU, CAPN2 / Fold change vs veh, CAPN2 / RFU, MED14 / Fold change vs veh, MED14 / RFU, SNORA58 / Fold change vs veh, SNORA58 / RFU, C1orf63 / Fold change vs veh, C1orf63 / RFU, LRRFIP1 / Fold change vs veh, LRRFIP1 / RFU, NDUFAF7 / Fold change vs veh, NDUFAF7 / RFU, SLC12A2 / Fold change vs veh, SLC12A2 / RFU, IBTK / Fold change vs veh, IBTK / RFU, ESF1 / Fold change vs veh, ESF1 / Fold change vs veh, TMEM50B / RFU, TAOK1 / Fold change vs veh, TAOK1 / RFU, ACBD3 / Fold change vs veh, ACBD3 / RFU, TMA16 / Fold change vs veh, TMA16 / RFU, RWDD3 / Fold change vs veh, RWDD3 / RFU, BCAT1 / Fold change vs veh, BCAT1 / RFU, EDEM3 / Fold change vs veh, EDEM3 / RFU, TMEM33 / Fold change vs veh, TMEM33 / RFU, WDR75 / Fold change vs veh, WDR75 / RFU, AHCTF1 / Fold change vs veh, AHCTF1 / RFU, TFRC / Fold change vs veh, TFRC / RFU, ZDHHC17 / Fold change vs veh, ZDHHC17 / RFU, NOM1 / Fold change vs veh, NOM1 / RFU, ARL8B / Fold change vs veh, ARL8B / RFU, ZBTB11 / Fold change vs veh, ZBTB11 / RFU, TAMM41 / Fold change vs veh, TAMM41 / RFU, KIAA1704 /// LOC100996395 / Fold change vs veh, KIAA1704 /// LOC100996395 / RFU, ING1 / Fold change vs veh, ING1 / RFU, TRMT61B / Fold change vs veh, TRMT61B / RFU, FUBP3 / Fold change vs veh, FUBP3 / RFU, TP53 / Fold change vs veh, TP53 / RFU, TNKS2 / Fold change vs veh, TNKS2 / RFU, ZFP14 / Fold change vs veh, ZFP14 / RFU, ACTR2 / Fold change vs veh, ACTR2 / RFU, PPP3R1 / Fold change vs veh, PPP3R1 / RFU, PIK3R1 / Fold change vs veh, PIK3R1 / RFU, HNRNPA1 / Fold change vs veh, HNRNPA1 / RFU, RNF170 / Fold change vs veh, RNF170 / RFU, ZNF28 / Fold change vs veh, ZNF28 / RFU, RNGTT / Fold change vs veh, RNGTT / RFU, OGT / Fold change vs veh, OGT / RFU, BRD1 / Fold change vs veh, BRD1 / RFU, MARS / Fold change vs veh, MARS / RFU, ZNF655 / Fold change vs veh, ZNF655 / RFU, FAHD1 / Fold change vs veh, FAHD1 / RFU, BDP1 / Fold change vs veh, BDP1 / RFU, LRRCC1 / Fold change vs veh, LRRCC1 / RFU, ARID1A / Fold change vs veh, ARID1A / RFU, ZNF146 / Fold change vs veh, ZNF146 / RFU, ZNF330 / Fold change vs veh, ZNF330 / RFU, GPN3 / Fold change vs veh, GPN3 / RFU, C9orf123 / Fold change vs veh, C9orf123 / RFU, N4BP2L2 / Fold change vs veh, N4BP2L2 / RFU, ARFIP1 / Fold change vs veh, ARFIP1 / RFU, FAM179B / Fold change vs veh, FAM179B / RFU, BCL10 / Fold change vs veh, BCL10 / RFU, UHRF1BP1L / Fold change vs veh, UHRF1BP1L / RFU, BET1 / Fold change vs veh, BET1 / RFU, CNOT2 / Fold change vs veh, CNOT2 / RFU, ZNF268 / Fold change vs veh, ZNF268 / Fold change vs veh, ZNF507 / RFU, DGCR2 / Fold change vs veh, DGCR2 / RFU, WDSUB1 / Fold change vs veh, WDSUB1 / Fold change vs veh, HSP90B1 /// MIR3652 / RFU, ADSS / Fold change vs veh, ADSS / RFU, GK / Fold change vs veh, GK / RFU, ZNF148 / Fold change vs veh, ZNF148 / RFU, TAF9 / Fold change vs veh, TAF9 / RFU, SLC1A5 / Fold change vs veh, SLC1A5 / RFU, SLMO2 / Fold change vs veh, SLMO2 / RFU, ABCC4 / Fold change vs veh, ABCC4 / RFU, LOC101060439 /// RAP1B / Fold change vs veh, LOC101060439 /// RAP1B / RFU, RFX7 / Fold change vs veh, RFX7 / RFU, GTPBP10 / Fold change vs veh, GTPBP10 / RFU, CNEP1R1 / Fold change vs veh, CNEP1R1 / RFU, BIVM-ERCC5 /// ERCC5 / Fold change vs veh, BIVM-ERCC5 /// ERCC5 / RFU, ILF3 / Fold change vs veh, ILF3 / RFU 11762660_at / Fold change /veh 11762660_at / RFU VCAN (11757783_s_at) / Fold change /veh VCAN (11757783_s_at) / RFU DDX43 (11728927_at) / Fold change /veh DDX43 (11728927_at) / RFU KRT8 (11758188_x_at) / Fold change /veh KRT8 (11758188_x_at) / RFU NKD1 (11759106_at) / Fold change /veh NKD1 (11759106_at) / RFU SRD5A1 (11742802_a_at) / Fold change /veh SRD5A1 (11742802_a_at) / RFU TPSAB1 /// TPSB2 (11721975_s_at) / Fold change /veh TPSAB1 /// TPSB2 (11721975_s_at) / RFU GSTM3 (11746129_a_at) / Fold change /veh GSTM3 (11746129_a_at) / RFU IL23R (11737362_x_at) / Fold change /veh IL23R (11737362_x_at) / RFU TMEM51 (11727254_a_at) / Fold change /veh TMEM51 (11727254_a_at) / RFU PIWIL2 (11732686_x_at) / Fold change /veh PIWIL2 (11732686_x_at) / RFU ORM1 (11744905_x_at) / Fold change /veh ORM1 (11744905_x_at) / RFU CCDC152 (11743942_at) / Fold change /veh CCDC152 (11743942_at) / RFU ECM1 (11717891_a_at) / Fold change /veh ECM1 (11717891_a_at) / RFU IL23R (11748794_a_at) / Fold change /veh IL23R (11748794_a_at) / RFU TNFAIP8L3 (11732012_x_at) / Fold change /veh TNFAIP8L3 (11732012_x_at) / RFU MBOAT4 (11741988_at) / Fold change /veh MBOAT4 (11741988_at) / RFU 11764193_at / Fold change /veh 11764193_at / RFU TMEM53 (11763286_at) / Fold change /veh TMEM53 (11763286_at) / RFU MAGEB2 (11727129_at) / Fold change /veh MAGEB2 (11727129_at) / RFU TMEM200A (11744735_a_at) / Fold change /veh TMEM200A (11744735_a_at) / RFU CCDC152 (11751479_a_at) / Fold change /veh CCDC152 (11751479_a_at) / RFU FAM211A (11726209_a_at) / Fold change /veh FAM211A (11726209_a_at) / RFU RGS16 (11746705_a_at) / Fold change /veh RGS16 (11746705_a_at) / RFU VCAN (11755009_s_at) / Fold change /veh VCAN (11755009_s_at) / RFU RHOB (11743442_s_at) / Fold change /veh RHOB (11743442_s_at) / RFU RGS16 (11720943_a_at) / Fold change /veh RGS16 (11720943_a_at) / RFU RGS16 (11720944_at) / Fold change /veh RGS16 (11720944_at) / RFU, VPS4B / Fold change vs veh, VPS4B / RFU, CREB1 / Fold change vs veh, CREB1 / RFU, DNAJC13 / Fold change vs veh, DNAJC13 / RFU, GNAQ / Fold change vs veh, GNAQ / RFU, CDK5R1 / Fold change vs veh, CDK5R1 / RFU, ZRANB3 / Fold change vs veh, ZRANB3 / RFU, CUL4A / Fold change vs veh, CUL4A / RFU, CCNY / Fold change vs veh, CCNY / RFU, UFL1 / Fold change vs veh, UFL1 / RFU, COG3 / Fold change vs veh, COG3 / RFU, DIAPH2 / Fold change vs veh, DIAPH2 / RFU, SKA2 / Fold change vs veh, SKA2 / RFU, AFF3 / Fold change vs veh, AFF3 / RFU, LMF1 / Fold change vs veh, LMF1 / RFU, IPO11 / Fold change vs veh, IPO11 / RFU, DFFB / Fold change vs veh, DFFB / RFU, FOXP1 / Fold change vs veh, FOXP1 / RFU, CARD8 / Fold change vs veh, CARD8 / RFU, STRN3 / Fold change vs veh, STRN3 / RFU, ADK / Fold change vs veh, ADK / RFU, RASSF2 / Fold change vs veh, RASSF2 / RFU, WIPF1 / Fold change vs veh, WIPF1 / RFU, LARP1B / Fold change vs veh, LARP1B / RFU, RASA1 / Fold change vs veh, RASA1 / RFU, RB1 / Fold change vs veh, RB1 / RFU, PPFIA1 / Fold change vs veh, PPFIA1 / RFU, MAT2A / Fold change vs veh, MAT2A / RFU, CCT5 / Fold change vs veh, CCT5 / RFU, WDR92 / Fold change vs veh, WDR92 / RFU, CUX1 / Fold change vs veh, CUX1 / RFU, TTC7A / Fold change vs veh, TTC7A / RFU, TMEM135 / Fold change vs veh, TMEM135 / RFU, DEPTOR / Fold change vs veh, DEPTOR / RFU, CPM / Fold change vs veh, CPM / RFU, DNAJB6 / Fold change vs veh, DNAJB6 / RFU, CACNA2D3 / Fold change vs veh, CACNA2D3 / RFU, DTX4 / Fold change vs veh, DTX4 / RFU, TFCP2 / Fold change vs veh, TFCP2 / RFU, GMCL1 /// GMCL1P1 / Fold change vs veh, GMCL1 /// GMCL1P1 / RFU, AEBP2 / Fold change vs veh, AEBP2 / RFU, SNHG1 /// SNORD22 /// SNORD25 /// SNORD26 /// SNORD27 /// SNORD28 /// SNORD29 /// SNORD31 / Fold change vs veh, SNHG1 /// SNORD22 /// SNORD25 /// SNORD26 /// SNORD27 /// SNORD28 /// SNORD29 /// SNORD31 / Fold change (Aza/veh), C12orf56 (ProbeSet 11735607_a_at) / Fold change (ACY-1035/veh), C12orf56 (ProbeSet 11735607_a_at) / Fold change (Aza/veh), FGFR1OP (ProbeSet 11751329_s_at) / Fold change (ACY-1035/veh), FGFR1OP (ProbeSet 11751329_s_at) / Fold change (Aza/veh), VPS36 (ProbeSet 11739960_a_at) / Fold change (ACY-1035/veh), VPS36 (ProbeSet 11739960_a_at) / RFU SYPL1 (11715823_x_at) / Fold change /veh SYPL1 (11715823_x_at) / RFU IGFBP7 (11715501_s_at) / Fold change /veh IGFBP7 (11715501_s_at) / RFU REEP3 (11722064_at) / Fold change /veh REEP3 (11722064_at) / RFU IGLL1 (11728026_x_at) / Fold change /veh IGLL1 (11728026_x_at): dose or concentration left out as unconfirmed
Conditions: ProbeSet 11756954_s_at; LIST B

Compound: Nc1ncn([C@@H]2O[C@H](CO)[C@@H](O)[C@H]2O)c(=O)n1 [azacitidine]
- RFU, ZEB2: 1324.44 RFU
